Laboratory results reported in patent publication US20250255976A1, “CATIONIC BIOMATERIALS AMELIORATE OBESITY-ASSOCIATED CHRONIC INFLAMMATION AND FOCAL ADIPOSITY” (THE TRUSTEES OF COLUMBIA UNIVERSITY IN THE CITY OF NEW YORK, priority 2022, published 2025).

Biological target: T1, TLR3 (Homo sapiens, UniProt O15455)
T1 construct: host or cells: HEK-Blue (HEK293) TLR3 reporter cells
T1 sequence (O15455 24-904): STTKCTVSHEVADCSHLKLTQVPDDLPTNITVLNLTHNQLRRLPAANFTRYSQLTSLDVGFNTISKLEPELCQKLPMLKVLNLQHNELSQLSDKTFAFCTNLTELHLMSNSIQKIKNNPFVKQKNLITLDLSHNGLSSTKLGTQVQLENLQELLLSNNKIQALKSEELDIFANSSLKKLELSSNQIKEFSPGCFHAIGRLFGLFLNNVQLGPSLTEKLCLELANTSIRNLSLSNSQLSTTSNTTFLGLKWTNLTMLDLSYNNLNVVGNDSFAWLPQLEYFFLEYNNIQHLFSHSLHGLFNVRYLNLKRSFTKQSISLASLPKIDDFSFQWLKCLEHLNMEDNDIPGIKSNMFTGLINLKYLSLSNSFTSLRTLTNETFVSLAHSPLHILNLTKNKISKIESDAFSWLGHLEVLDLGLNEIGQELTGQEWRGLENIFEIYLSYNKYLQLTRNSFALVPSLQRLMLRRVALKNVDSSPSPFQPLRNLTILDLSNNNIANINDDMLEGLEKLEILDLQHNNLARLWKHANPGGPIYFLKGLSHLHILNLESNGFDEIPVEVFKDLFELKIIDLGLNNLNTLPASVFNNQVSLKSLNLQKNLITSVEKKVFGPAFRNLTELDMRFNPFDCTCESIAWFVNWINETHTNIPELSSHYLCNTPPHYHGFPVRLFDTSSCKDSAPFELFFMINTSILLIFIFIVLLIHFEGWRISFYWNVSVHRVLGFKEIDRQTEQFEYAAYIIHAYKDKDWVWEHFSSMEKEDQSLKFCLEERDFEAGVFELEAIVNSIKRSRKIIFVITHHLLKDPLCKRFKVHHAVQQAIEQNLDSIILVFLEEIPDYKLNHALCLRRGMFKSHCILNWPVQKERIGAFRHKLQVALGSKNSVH
Experiment: HEK-Blue TLR3 reporter cell SEAP assay, stimulated with murine plasma or liver total RNA
Assay type: cell-based
Details: plasma from DIO mice; inhibitor added 30 min before stimulus, or plasma digested with RNase I; FIG. 2F
Method: Stable TLR3-, 4-, 8-, and 9-overexpressing HEK-Blue and TLR3 knockout (KO) HEK-Dual Null cells (Invivogen) were propagated in high-glucose Dulbecco's modified Eagle's medium (DMEM) with 10% (v/v) fetal bovine serum (FBS, Corning) and maintained in growth medium supplemented with selective antibiotics following the manufacturer's instructions. RAW264.7 cells (ATCC) were cultured in high-glucose DMEM with 10% (v/v) FBS and then were subcultured by detachment with a cell scraper. C3H10T1/2 cells (ATCC) were cultured in high-glucose DMEM with 10% (v/v) FBS and 1× penicillin/streptomycin (Thermo Fisher). 3T3-L1 cells (ATCC) were cultivated in high-glucose DMEM with 10% (v/v) calf serum and 1× penicillin/streptomycin to maintain the undifferentiated status. At two days post-confluence, 3T3-L1 preadipocytes were induced to differentiate into adipocytes using an adipogenic cocktail containing 10 μg/mL insulin, 1 μM dexamethasone, and 0.5 mM 3-isobutyl-1-methylxanthine in 10% FBS DMEM. Two days post-induction, the cell medium was switched to the maintenance medium of 10% FBS DMEM supplemented with 2.5 μg/mL insulin.
HEK-Blue TLR3 cells (5×10^4 cells/well) were seeded and cultured overnight in 96-well plates in DMEM and then stimulated with murine plasma or liver total RNA. After 48 h, the activation of reporter cells was determined with a Quanti-blue medium (Invivogen). […]

Row | activation of TLR3 by obese plasma | Molecule
1 | blocked | ribonuclease I [RNase I]
2 | blocked | O=C(N[C@H](Cc1ccccc1)C(=O)O)c1sc2cc(F)ccc2c1Cl [TLR3 inhibitor]
